Measured values published in ChEMBL document CHEMBL3992518, “Peptide Macrocycle Inhibitor of Coagulation Factor XII with Subnanomolar Affinity and High Target Selectivity” (J Med Chem, 2017).
*1 amine or outer side, *2 acyl side, *3 side chain or, on linkers, in order; H or OH if unused. Where a SMILES comes first, the peptide text is derived from it. Bridges are numbered along the chain shown (N, C = ends). [ ]: non-standard residue; d: D form. TATA = O=C(CC[*:1])N1CN(C(=O)CC[*:2])CN(C(=O)CC[*:3])C1; hLeu = CC(C)CC[C@H](N)C(=O)O; Nle = CCCC[C@H](N)C(=O)O

Molecular target: T1, Coagulation factor XII (Homo sapiens, UniProt P00748)
T1 sequence (P00748 whole entry): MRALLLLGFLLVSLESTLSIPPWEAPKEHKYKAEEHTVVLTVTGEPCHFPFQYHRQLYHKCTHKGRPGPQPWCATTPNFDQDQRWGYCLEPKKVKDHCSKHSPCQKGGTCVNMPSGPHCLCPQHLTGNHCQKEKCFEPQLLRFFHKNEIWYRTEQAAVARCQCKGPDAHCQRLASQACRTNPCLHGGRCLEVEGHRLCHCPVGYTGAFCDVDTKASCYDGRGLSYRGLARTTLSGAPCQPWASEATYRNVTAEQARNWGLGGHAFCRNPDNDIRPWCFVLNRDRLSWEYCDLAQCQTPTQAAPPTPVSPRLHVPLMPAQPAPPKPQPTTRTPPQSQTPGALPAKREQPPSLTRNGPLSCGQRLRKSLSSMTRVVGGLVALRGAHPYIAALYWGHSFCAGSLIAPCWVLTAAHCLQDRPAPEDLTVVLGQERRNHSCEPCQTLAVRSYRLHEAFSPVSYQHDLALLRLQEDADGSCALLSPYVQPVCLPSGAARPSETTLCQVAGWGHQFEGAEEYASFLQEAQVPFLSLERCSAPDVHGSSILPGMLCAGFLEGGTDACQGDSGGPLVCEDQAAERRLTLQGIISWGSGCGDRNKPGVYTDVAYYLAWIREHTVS
Experiment: Inhibition of human beta factor 12a using fluorogenic substrate Boc-Gln-Gly-Arg-AMC preincubated for 10 mins followed by addition of substrate measured every min for 30 mins

Ki [nM]	SMILES
17.7	CC(C)C[C@@H]1NC(=O)[C@H](CCCNC(=N)N)NC(=O)[C@H](Cc2ccccc2)NC(=O)[C@@H](NC(=O)[C@@H](N)CCCNC(=N)N)CSCCC(=O)N2CN3CN(C2)C(=O)CCSC[C@H](NC(=O)[C@@H]2CCCN2C1=O)C(=O)N[C@@H](CCCNC(=N)N)C(=O)N[C@@H](CCC(N)=O)C(=O)N[C@@H](CC(C)(C)C)C(=O)N[C@@H](CCCNC(=N)N)C(=O)N[C@H](C(=O)N[C@@H](CCCNC(=N)N)C(=O)N[C@@H](Cc1c[nH]c2ccccc12)C(=O)O)CSCCC3=O
> 3000	CC(C)C[C@@H]1NC(=O)[C@H](CCC(=O)O)NC(=O)[C@H](CCCNC(=N)N)NC(=O)[C@@H]2CSCCC(=O)N3CN(CN(C3)C(=O)CCSC[C@H](NC(=O)[C@@H](N)CCCNC(=N)N)C(=O)N[C@@H](Cc3ccccc3)C(=O)N[C@@H](CCCNC(=N)N)C(=O)N[C@@H](CC(C)C)C(=O)N3CCC[C@H]3C(=O)N2)C(=O)CCSC[C@@H](C(=O)N[C@@H](CCCNC(=N)N)C(=O)N[C@@H](Cc2c[nH]c3ccccc23)C(=O)O)NC(=O)[C@H](CCCNC(=N)N)NC1=O (H-RCFRLPCRELRCRW-OH; linker 2-7-12 via TATA)
30.6	CCCC[C@@H]1NC(=O)[C@H](CCC(N)=O)NC(=O)[C@H](CCCNC(=N)N)NC(=O)[C@@H]2CSCCC(=O)N3CN(CN(C3)C(=O)CCSC[C@H](NC(=O)[C@@H](N)CCCNC(=N)N)C(=O)N[C@@H](Cc3ccccc3)C(=O)N[C@@H](CCCNC(=N)N)C(=O)N[C@@H](CC(C)C)C(=O)N3CCC[C@H]3C(=O)N2)C(=O)CCSC[C@@H](C(=O)N[C@@H](CCCNC(=N)N)C(=O)N[C@@H](Cc2c[nH]c3ccccc23)C(=O)O)NC(=O)[C@H](CCCNC(=N)N)NC1=O
> 3000	CCCC[C@@H]1NC(=O)[C@H](CCCNC(=N)N)NC(=O)[C@H](Cc2ccccc2)NC(=O)[C@@H](NC(=O)[C@@H](N)CCCNC(=N)N)CSCCC(=O)N2CN3CN(C2)C(=O)CCSC[C@H](NC(=O)[C@@H]2CCCN2C1=O)C(=O)N[C@@H](CCCNC(=N)N)C(=O)N[C@@H](CCC(N)=O)C(=O)N[C@@H](CC(C)C)C(=O)N[C@@H](CCCNC(=N)N)C(=O)N[C@H](C(=O)N[C@@H](CCCNC(=N)N)C(=O)N[C@@H](Cc1c[nH]c2ccccc12)C(=O)O)CSCCC3=O (H-RCFR[Nle]PCRQLRCRW-OH; linker 2-7-12 via TATA)
13	CC(C)C[C@@H]1NC(=O)[C@H](CCC(N)=O)NC(=O)[C@H](CCCNC(=N)N)NC(=O)[C@@H]2CSCCC(=O)N3CN(CN(C3)C(=O)CCSC[C@H](NC(=O)[C@@H](N)CCCNC(=N)N)C(=O)N[C@@H](Cc3ccccc3)C(=O)N[C@@H](CCCNC(=N)N)C(=O)N[C@@H](CC(C)C)C(=O)N[C@@H](CC(C)C)C(=O)N2)C(=O)CCSC[C@@H](C(=O)N[C@@H](CCCNC(=N)N)C(=O)N[C@@H](Cc2c[nH]c3ccccc23)C(=O)O)NC(=O)[C@H](CCCNC(=N)N)NC1=O (H-RCFRLLCRQLRCRW-OH; linker 2-7-12 via TATA)
2700	CC(C)CC[C@@H]1NC(=O)[C@H](CCCNC(=N)N)NC(=O)[C@H](Cc2ccccc2)NC(=O)[C@@H](NC(=O)[C@@H](N)CCCNC(=N)N)CSCCC(=O)N2CN3CN(C2)C(=O)CCSC[C@H](NC(=O)[C@@H]2CCCN2C1=O)C(=O)N[C@@H](CCCNC(=N)N)C(=O)N[C@@H](CCC(N)=O)C(=O)N[C@@H](CC(C)C)C(=O)N[C@@H](CCCNC(=N)N)C(=O)N[C@H](C(=O)N[C@@H](CCCNC(=N)N)C(=O)N[C@@H](Cc1c[nH]c2ccccc12)C(=O)O)CSCCC3=O (H-RCFR[hLeu]PCRQLRCRW-OH; linker 2-7-12 via TATA)
4.5	CC(C)C[C@@H]1NC(=O)[C@H](CCC(N)=O)NC(=O)[C@H](CCCNC(=N)N)NC(=O)[C@@H]2CSCCC(=O)N3CN(CN(C3)C(=O)CCSC[C@H](NC(=O)[C@@H](N)CCCNC(=N)N)C(=O)N[C@@H](Cc3cccc(F)c3)C(=O)N[C@@H](CCCNC(=N)N)C(=O)N[C@@H](CC(C)C)C(=O)N3CCC[C@H]3C(=O)N2)C(=O)CCSC[C@@H](C(=O)N[C@@H](CCCNC(=N)N)C(=O)N[C@@H](Cc2c[nH]c3ccccc23)C(=O)O)NC(=O)[C@H](CCCNC(=N)N)NC1=O
330	CC(C)C[C@@H]1NC(=O)[C@H](CCC(N)=O)NC(=O)[C@H](CCCNC(=N)N)NC(=O)[C@@H]2CSCCC(=O)N3CN(CN(C3)C(=O)CCSC[C@H](N)C(=O)N[C@@H](Cc3ccccc3)C(=O)N[C@@H](CCCNC(=N)N)C(=O)N[C@@H](CC(C)C)C(=O)N3CCC[C@H]3C(=O)N2)C(=O)CCSC[C@@H](C(=O)N[C@@H](CCCNC(=N)N)C(=O)O)NC(=O)[C@H](CCCNC(=N)N)NC1=O (H-CFRLPCRQLRCR-OH; linker 1-6-11 via TATA)
1040	CC(C)C[C@@H]1NC(=O)[C@H](CCCNC(=N)N)NC(=O)[C@H](Cc2ccccc2)NC(=O)[C@@H](NC(=O)[C@@H](N)CCCNC(=N)N)CSCCC(=O)N2CN3CN(C2)C(=O)CCSC[C@H](NC(=O)[C@@H]2CCCN2C1=O)C(=O)N[C@@H](CCCNC(=N)N)C(=O)N[C@@H](CCC(N)=O)C(=O)N[C@@H](C)C(=O)N[C@@H](CCCNC(=N)N)C(=O)N[C@H](C(=O)N[C@@H](CCCNC(=N)N)C(=O)N[C@@H](Cc1c[nH]c2ccccc12)C(=O)O)CSCCC3=O (H-RCFRLPCRQARCRW-OH; linker 2-7-12 via TATA)
120	CC(C)C[C@@H]1NC(=O)[C@H](CCC(N)=O)NC(=O)[C@H](CCCNC(=N)N)NC(=O)[C@@H]2CSCCC(=O)N3CN(CN(C3)C(=O)CCSC[C@H](NC(=O)[C@@H](N)CCCNC(=N)N)C(=O)N[C@@H](Cc3ccccc3)C(=O)N[C@@H](CCCNC(=N)N)C(=O)N[C@@H](CC(C)C)C(=O)N[C@@H](CC(=O)O)C(=O)N2)C(=O)CCSC[C@@H](C(=O)N[C@@H](CCCNC(=N)N)C(=O)N[C@@H](Cc2c[nH]c3ccccc23)C(=O)O)NC(=O)[C@H](CCCNC(=N)N)NC1=O (H-RCFRLDCRQLRCRW-OH; linker 2-7-12 via TATA)
143	CSCC[C@@H]1NC(=O)[C@H](CCC(N)=O)NC(=O)[C@H](CCCNC(=N)N)NC(=O)[C@@H]2CSCCC(=O)N3CN(CN(C3)C(=O)CCSC[C@H](NC(=O)[C@@H](N)CCCNC(=N)N)C(=O)N[C@@H](Cc3ccccc3)C(=O)N[C@@H](CCCNC(=N)N)C(=O)N[C@@H](CC(C)C)C(=O)N3CCC[C@H]3C(=O)N2)C(=O)CCSC[C@@H](C(=O)N[C@@H](CCCNC(=N)N)C(=O)N[C@@H](Cc2c[nH]c3ccccc23)C(=O)O)NC(=O)[C@H](CCCNC(=N)N)NC1=O (H-RCFRLPCRQMRCRW-OH; linker 2-7-12 via TATA)
111	CC(C)C[C@@H]1NC(=O)[C@H](CCC(N)=O)NC(=O)[C@H](CCCNC(=N)N)NC(=O)[C@@H]2CSCCC(=O)N3CN(CN(C3)C(=O)CCSC[C@H](NC(=O)[C@@H](N)CCCNC(=N)N)C(=O)N[C@@H](Cc3ccccc3)C(=O)N[C@@H](CCCCN)C(=O)N[C@@H](CC(C)C)C(=O)N3CCC[C@H]3C(=O)N2)C(=O)CCSC[C@@H](C(=O)N[C@@H](CCCNC(=N)N)C(=O)N[C@@H](Cc2c[nH]c3ccccc23)C(=O)O)NC(=O)[C@H](CCCNC(=N)N)NC1=O (H-RCFKLPCRQLRCRW-OH; linker 2-7-12 via TATA)
12	CC(C)C[C@@H]1NC(=O)[C@H](CCC(N)=O)NC(=O)[C@H](CCCNC(=N)N)NC(=O)[C@@H]2CSCCC(=O)N3CN(CN(C3)C(=O)CCSC[C@H](NC(=O)[C@@H](N)CCCNC(=N)N)C(=O)N[C@@H](Cc3c[nH]c4ccccc34)C(=O)N[C@@H](CCCNC(=N)N)C(=O)N[C@@H](CC(C)C)C(=O)N3CCC[C@H]3C(=O)N2)C(=O)CCSC[C@@H](C(=O)N[C@@H](CCCNC(=N)N)C(=O)N[C@@H](Cc2c[nH]c3ccccc23)C(=O)O)NC(=O)[C@H](CCCNC(=N)N)NC1=O (H-RCWRLPCRQLRCRW-OH; linker 2-7-12 via TATA)
